Laboratory results published in patent US9328397B2, “Removal of arsenic using a dissimilatory arsenic reductase” (UNIWERSYTET WARSZAWSKI, priority 2013, dated 2016).

Key:
[1] = test system: Shewanella sp. O23S strain; assay: Minimal inhibitory concentration (MIC) of heavy metals in LB medium; format: cell-based; conditions: 24 hours at 22° C., OD600
[2] = test system: Shewanella sp. O23S strain; assay: Dissimilatory reduction of 2.5 mM sodium arsenate in the presence of heavy metals; format: cell-based; conditions: minimal R1-R2 medium; for Reduction of arsenic in the presence of the metal (maximum concentration of metals allowing for dissimilatory reduction of 2.5 mM sodium arsenate): 5 mM sodium lactate

`O.O=S(=O)([O-])[O-].[Mn+2]` [Mn(II), MnSO4•H2O] was tested, and the MIC value [1] was greater than 20 mM and the “Reduction of arsenic in the presence of the metal (maximum concentration of metals allowing for dissimilatory reduction of 2.5 mM sodium arsenate)” value (from here on “Reduction of arsenic”) [2] was greater than 5 mM.

`O.O.O.O.O.O=S(=O)([O-])[O-].[Cu+2]` [Cu(II), CuSO4•5H2O] was tested, and the MIC value [1] was 3 mM and the “Reduction of arsenic” value [2] was 2 mM.

`O.O.O.O.O.O.O.O.O=S(=O)([O-])[O-].[Cd+2]` [Cd(II), CdSO4•8H2O] was tested, and the MIC value [1] was 1 mM and the “Reduction of arsenic” value [2] was 1 mM.

`O.O.O.O.O.O.O.O=S(=O)([O-])[O-].[Co+2]` [Co(II), CoSO4•7H2O] was tested, and the MIC value [1] was 2 mM and the “Reduction of arsenic” value [2] was 2 mM.

With `O.O.O.O.O.O.O.O=S(=O)([O-])[O-].[Zn+2]` [Zn(II), ZnSO4•7H20] the MIC value [1] was 3 mM and the “Reduction of arsenic” value [2] was 2 mM.

`O.O.O.O.O.O.O.O.O.O.O=[Se](=O)([O-])[O-].[Na+].[Na+]` [Se(VI), Na2SeO4•10H2O] was tested, and the MIC value [1] was greater than 20 mM and the “Reduction of arsenic” value [2] was 5 mM.

For `[Fe+3]` [Fe(III)], the MIC value [1] was 5 mM and the “capability of dissimilatory reduction in the presence of the metal” value [2] was “not demonstrated”.

For `[Na+].[O]=[V](=[O])[O-]` [V(V), NaVO3], the MIC value [1] was greater than 20 mM and the “Reduction of arsenic” value [2] was greater than 5 mM.

For `O.O.O.O.O.O.O.O.O.O.O.O.O.O.O.O.O.O.O=S(=O)([O-])[O-].O=S(=O)([O-])[O-].O=S(=O)([O-])[O-].[Cr+3].[Cr+3]` [Cr(III), Cr2(SO4)3•18H2O], the MIC value [1] was 5 mM and the “Reduction of arsenic” value [2] was 3 mM.
